# Residues, ends and D or L forms follow the SMILES beside them. *: point of attachment. Cbz = O=C(OCc1ccccc1)*
# What was measured:
# Assay type in all cases: cell-based, human
# [1] = system: HTS test cell lines Aβ-KKK-ER/59 and Aβ-KKK/52 (H4 cells); assay: Alamar Blue vitality (cytotoxicity) test; details: clones Aβ-KKK-ER/59 and Aβ-KKK/52, entire range of concentrations, parallel to luciferase test
# Description: A possible toxic effect of the BFA (in different concentrations) on the cells was investigated using an Alamar Blue test (see below) which was carried out in parallel to the luciferase test.
# Alamar Blue (Messrs. Biosource International, VE=100 ml, Cat.No. DAL 1100 (AL-01 -100)) was sterile-filtered. The seeding of the cells and substance incubation were carried out as in Example 1.
# The Alamar blue incubation was carried out parallel to the luciferase test.
# Alamar blue was diluted to 5% with whole medium (DMEM m 4.5 g/l glucose+10% FCS+1% glutamine+1% Pen/Strep). The medium was suction filtered. The cells were washed once with medium or PBS. One hundred microliters of (5%) Alamar blue were added (96 well plate) and a plate was incubated for 1 hour in the incubator at 37° C. and in 5% CO2. Fluorimetric measurement was carried out at an input wavelength of 544 nm, an emission wavelength of 590 nm and a measuring time of 0.3 s/well. The results are given as a percentage of the control.
# γ-secretase = γ-secretase HTS luciferase reporter assay (Aβ-KKK/Gal4 substrate, SteadyGlo); details: different concentrations; for inhibition of Aβ formation (luciferase signal): cell clones Aβ-KKK-ER/40, 59, 65 and Aβ-KKK/52 (also Aβ-KKK/40 for substance B), overnight
# Source text: H4 neuroglioma cells (Accession Number HTB 148 at the American Type Culture Collection, Manassas, Va., USA) were stably transfected under standard conditions with the reporter construct pFRLuc (Stratagene) which carries the gene for luciferase which is under the control of a promoter containing the Gal4 DNA binding domain. […] In order to prepare the Aβ-KKK/Gal4 construct, a sequence which contained the N-terminal signal sequence of APP and the first 55 amino acids of Aβ (Shoji, M. et al., Science, 1992; 158:126-129) was attached to the Gal4 coding sequence (Laughan, A. and Gesteland, R., Molec. Cell Biol., 1984, 4:260-267) by genetic engineering methods and cloned into the expression vector pcDNA3neo (Invitrogen). This construct was designated Aβ-KKK/Gal4. In order to insert an ER-retention signal in the substrate of the γ-secretase, the last nucleotides of the Gal4 were modified by genetic engineering methods so that they coded for amino acids KKLI. This construct was named Aβ-KKK-ER/Gal4. The cell clone obtained as described above was used for the second stable transfection with pcDNA3/Aβ-KKK/Gal4 or pcDNA3/Aβ-KKK-ER/Gal4 and the selection was carried out with neomycin under standard conditions (Sambrook and Maniatis, Molecular Cloning: A Laboratory Manual, Cold Spring Harbor Laboratory, Cold Spring Harbor, N.Y., 1989). Individual neomycin-resistant cell clones were tested for expression of luciferase. The clones with the highest expression were used for the substance analyses. All the transfections were carried out using the Fugene transfection system of Boehringer Mannheim in accordance with the manufacturer's instructions.
# The doubly stable HTS cell line is seeded onto a 96/384 microtitre plate. When the cells achieved confluence they are incubated with the test substance in question for a specified length of time.
# By the presence of an endogenous or exogenous γ-secretase activity in the H4 cells, the substrate (Aβ-KKK/Gal4) is cleaved proteolytically, whereupon the transactivator Gal4 can detach itself from the membrane and enter the cell nucleus. In the cell nucleus, Gal4 binds to the Gal4 DNA binding domain of the reporter construct and thus activates the expression of the luciferase. When a specific γ-secretase inhibitor is present the substrate cannot be cleaved and Gal4 remains bound to the substrate on the cell membrane, leading to a reduction and even total inhibition of the luciferase activity.
# Cells are seeded onto 96/[…] well plates in DMEM whole medium (10% FCS, 1% glutamine, 1% penicillin/streptomycin) in a dilution of 1:5. […] Then, the luminescence is measured. […]
# [2] = system: Aβ40 and Aβ42 secreted by U373/APP751 cell line; assay: ELISA of extracellular Aβ40 and Aβ42 secreted by U373/APP751 cells
# Description: Substance A was also active in a cellular test system in which the extracellular content of Aβ40 and Aβ42 secreted by the U373 cell line (U373: ATCC No. HTB 14) was determined. This cell line, U373/APP751, is an astrocytoma cell line which overexpresses human APP751 and secretes large amounts of Aβ40 (about 1000 pg/ml/4 hours with 5×10^7 cells in 15 ml of medium) and Aβ42 (about 1000 pg/ml/4 hours with 5×10^7 cells in 15 ml of medium). The measurement is carried out by ELISA (Steiner, H. et al., J. Biol. Chem, 1998, 273:32322-32331).
Structure (SMILES),loss of vitality (toxic effect on the cells) [1],"BFA effect on luciferase signal (γ-secretase; cell clone Aβ-KKK/52 (without ER retention signal), 6 hours)",inhibition of Aβ formation (luciferase signal) (γ-secretase),Aβ40 secretion [2],Aβ42 secretion [2]
"C[C@H]1CCC/C=C/[C@@H]2C[C@H](O)C[C@H]2[C@H](O)/C=C/C(=O)O1 [BFA, Brefeldin A, reference compound]",No loss of vitality,clear BFA effect could be seen,,,
CC(C)C(NC(=O)OCc1ccccc1)C(=O)NC(C=O)Cc1ccccc1 (stereo not drawn) [Substance B] (Cbz-Val-Phe-aldehyde; configuration not given here),,,does not inhibit Aβ formation in concentration-dependent manner,,
CCCCNC(=O)[C@@H](C[C@H](O)[C@H](CC1CCCCC1)NCCCC(C)C)C(C)C [Substance A],,,inhibits Aβ formation in a manner dependent on concentration,greatly reduced in concentration-dependent manner,increased at sub-inhibitory doses and then also inhibited at higher doses
Cc1nccn1Cc1ccccn1 [Substance C],,,does not inhibit Aβ formation in concentration-dependent manner,,
